The target of assay [1] is T1, PaPepA (Pseudomonas aeruginosa, UniProt Q02RY8). Put plainly: Isothermal titration calorimetry of metal binding. Set-up: GG stays after cleavage) (N); made in house; host or cells: E. coli BL21(DE3). The method, then: Purified PaPepA (100 μM) was buffer exchanged into ITC buffer (50 mM Tris, 140 mM NaCl, pH 7.4) using a Millipore Amicon Ultra-4 centrifugal unit (10 kDa MWCO). The protein was syringe-filtered through a […] and diluted to 50 μM. 3 mL solutions of filtered metal were also prepared. A 400 μM solution of MnCl2 and a 1 mM solution of MgCl2 were prepared by dilution of 1 M metal chloride stocks (Sigma) into ITC buffer.
T1 sequence (Q02RY8 whole entry): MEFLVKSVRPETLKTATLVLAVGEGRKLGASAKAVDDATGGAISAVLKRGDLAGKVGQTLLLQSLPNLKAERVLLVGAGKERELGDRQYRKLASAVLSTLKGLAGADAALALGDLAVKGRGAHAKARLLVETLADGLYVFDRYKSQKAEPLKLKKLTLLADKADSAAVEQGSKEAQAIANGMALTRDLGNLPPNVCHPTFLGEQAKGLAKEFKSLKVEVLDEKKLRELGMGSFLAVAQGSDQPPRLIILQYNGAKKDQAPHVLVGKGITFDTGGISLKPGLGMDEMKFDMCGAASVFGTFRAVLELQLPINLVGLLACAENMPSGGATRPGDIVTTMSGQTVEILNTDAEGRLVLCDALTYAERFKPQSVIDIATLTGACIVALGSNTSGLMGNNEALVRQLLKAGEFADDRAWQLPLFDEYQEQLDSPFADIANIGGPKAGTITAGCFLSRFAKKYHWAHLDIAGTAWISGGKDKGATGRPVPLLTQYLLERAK
Buffer, protein, and metal solutions were degassed. Following extensive washes with ITC buffer, the protein was loaded into the cell (volume 1.43 mL) of a VP-ITC (MicroCal) and MnCl2 or MgCl2 solution was loaded into the syringe (total volume 300 μL). Experiments were carried out using the following settings: temperature = 25 °C, duration = 4 s, spacing = 210 s, filter period = 2 s, for 35 injections (one injection of 2 μL followed by 34 injections of 8 μL). Data were analyzed using Origin(Pro), Version 2021 (OriginLab Corporation, Northampton, Massachusetts, USA), and MicroCal PEAQ-ITC analysis software (Malvern).
A general note: In ITC the heat of successive injections is recorded.

Assay [2] deals with T1, PaPepA. Put plainly: Metal activation of Leu-pNA cleavage (metal varied, Leu-pNA fixed). The format is biochemical. Set-up: GG stays after cleavage) (N); made in house; host or cells: E. coli BL21(DE3). Particulars: with 2 mM Leu-pNA. The procedure: A BMG Labtech POLARstar Omega plate reader was used for activity assays and kinetic studies involving amino acids conjugated to para-nitroaniline (pNA) (Sigma) or peptides as substrates. Assays were carried out at 25 °C in clear half-area 96-well plates (Greiner Bio-One). […] For kinetic assays investigating Leu-AMC as a substrate, a SpectraMax M2E was used. Reactions were carried out using black half-area 96-well plates with clear bottoms (Greiner Bio-One). Product formation was assessed by monitoring changes in fluorescence, with the excitation wavelength set at 341 nm and emission at 441 nm. The cutoff was 420 nm. PMT gain was set to medium, with six flashes per read. […] Calibration curves of pNA concentration vs absorbance and AMC vs fluorescence were constructed, and initial rate values were divided by the slope of these calibration curves to reveal the rate of product formation over time (Table S2).
For all assays excluding pH dependence curves, buffer conditions were as follows: 100 mM HEPES, 50 mM KCl, and pH 8.0. For assays carried out under pseudo-first-order conditions, one reaction component was fixed and in excess, while the other was varied. […] For assays involving variation of aa-pNA or aa-AMC, MnCl2 was added to a final concentration of 3 mM.

Assay [3] deals with T1, PaPepA. Put plainly: Solvent kinetic isotope effects. The format is biochemical. Set-up: GG stays after cleavage) (N); made in house; host or cells: E. coli BL21(DE3). Particulars: H2O vs 80% D2O, metal varied, Leu-pNA fixed, pH 8.0. The procedure:
SKIEs were determined by plotting saturation curves in H2O or 80% D2O. […] Differences between reaction rates under initial velocity conditions were measured varying the concentration of either Leu-pNA or Mn^2+, while keeping the other component constant and in excess (at least 5× the value of KM or KACT, Scheme 2). Experiments were performed at pH 8.0 (100 mM HEPES, with 50 mM KCl). For proton inventory studies, D2O was varied from 0 to 80% in 10% increments. All proton inventory studies were carried out on the same day by using the same enzyme stock.
When calculating SKIEs, kcat and KM were obtained from the Michaelis–Menten curves in H2O. The 80% D2O Michaelis–Menten curve was fit to the following equation: [drawing 2] 2 where Fi is the fraction D2O, and EV/K and EV are the isotope effects −1 on kcat/KM and kcat, respectively.

Assay [4] concerns the target T1, PaPepA. Put plainly: Zn2+ inhibition in the pNA assay with Mn2+. It counts as biochemical. Set-up: GG stays after cleavage) (N); made in house; host or cells: E. coli BL21(DE3). The procedure: Figure 3 PaPepA metal binding and catalysis. (A) PaPepA activity with different divalent metals assessed through kcat/KACT. Leu-pNA was present in all assays at a concentration of 2 mM. (B) The effects of Zn^2+ and Mn^2+ preincubation, followed by extensive dialysis in metal-free buffer and subsequent addition of excess Mn^2+. (C) Michaelis–Menten plots showing inhibition of PaPepA by Zn^2+. Data were fit to a noncompetitive mixed model of inhibition. (D) Representative plots of the ITC data for titrations of MnCl2 (left) and MgCl2 (right) with PaPepA. The top panel depicts raw data, and the bottom panel depicts the resulting enthalpy changes as a function of molar addition of metal as well as the best fit to a single binding site model. (E) Plot of room-temperature EPR double integrals against Mn^2+ concentration for samples without enzyme (teal dots) and in the presence of 20 μM PaPepA (purple dots). […] (F) Frozen solution EPR spectra of PaPepA in the presence of various ratios of Mn^2+: enzyme, upper box zoomed-in data without the metal in buffer control. For panels (A), (B), and (C), data are mean ± SEM across three replicates. For Figure 3D, experiments were performed in two separate biological replicates, one shown here for illustration, and all data were acquired in Figure S11. […]

The target of assay [5] is T1, PaPepA. The note with it: degassed solutions, 3 mM MnCl2, 2 mM Leu-pNA, sodium bicarbonate 0 to 5 mM.
Source text: For assays investigating bicarbonate dependence, all buffers and stock solutions were extensively degassed prior to use.[25]
Assay [6] has as its target T1, PaPepA. In words: biochemical.
Source text: MnCl2 was present in excess.
concentrations of Leucine as an inhibitor.
Assay [7] deals with T1, PaPepA. In words: Alcohol dehydrogenase peptide degradation assay (LC-MS). The format is biochemical. The note with it: MassPREP ADH digest, 100 nM PaPepA, 3 mM MnCl2, overnight. Set-up: GG stays after cleavage) (N); made in house; host or cells: E. coli BL21(DE3). The procedure:
A vial of MassPREP ADH digestion standard (Waters) was reconstituted in 200 μL of LC-MS grade water. Reaction mixtures were prepared by combining 25 μL of ADH solution, 3 mM MnCl2, and 100 nM PaPepA (final concentrations) in a total volume of 50 μL buffer (100 mM HEPES pH 8.0, 50 mM KCl). For control reactions, the addition of PaPepA was omitted. Samples and controls were each prepared in triplicate and incubated overnight, and reactions quenched with the addition of […] of 10% TCA. Following the addition of acid, PaPepA was added to control samples to a final concentration of 50 nM (equivalent to a concentration of enzyme in the reaction samples following acid quenching). Samples were concentrated to 20 μL. A 1 μL portion of this was diluted in 100 μL of LC-MS grade water. 10 μL was injected and analyzed on a SCIEX TripleTOF 5600+ mass spectrometer with an Eksigent 425 nanoLC configured in trap elute configuration. Each sample was loaded onto the trap (Waters ACQUITY M-Class symmetry column 180 μm × 20 mm) and washed with 0.05% TFA in water for 5 min at 5 μL/min. The trap was then switched in line with the Waters M-Class HSS1 analytical column, 75 μm × 150 mm, with a flow rate of 300 nL/min. Samples were eluted over 30 min using a linear gradient from 98% A (100% water 0.1% FA) 2% B (80% MeCN, […] 0.1% FA) to 60% A, 40% B linearly over 12 min, rising to 5% A, 95% B, before returning to 98% A to re-equilibrate. Eluate from the column was sprayed directly into the nanospray source of the mass spectrometer. MS data were collected from 400 to 1250 m/z as the survey scan, and under data-dependent acquisition (DDA) setting, the top 20 strongest peptides were selected for MS/MS using CID fragmentation. Peptide mass tolerance was 20 ppm on the MS and 0.1 Da on the MS/MS.
Identification and analysis of ADH peptides were performed using the Skyline open-access software package (version 22.2). Raw data were extracted using msConvert (ProteoWizard) and the data searched using Skyline against the ADH1 sequence from Saccharomyces cerevisiae (UniProt: P00330). The digestion enzyme was set as trypsin, allowing up to three missed cleavages. Searches encompassed peptides between 400 and 1250 m/z with a mass tolerance of 0.3 m/z. Carbamidomethyl was set as a fixed modification for cysteine residues. Data were searched for the protonated 1+, 2+, and 3+ charge states of each peptide.
Peaks were integrated, and areas were used to qualitatively assess differences in peptide abundances across PaPepA-digested samples and controls. Peptides present in control samples but absent in reactions (integrated area <1000) were classified as “digested”.

Several values for one entry are separate records, joined by “and”; a condition that tells them apart may be missing. Equal values may be shown once.

Results on five compounds are retold here after paper PMC10666288, “Unveiling the Catalytic Mechanism of a Processive Metalloaminopeptidase” (Biochemistry, 2023).

In general, Kd refers to the constant that tells how readily two partners part at equilibrium. As usually defined, the Ki is a measure of affinity in units of concentration, obtained from inhibition or displacement.

Regarding `[Mg+2]` [Mg^2+], in assay [1] (ITC stoichiometry per monomer), the “number of metal atoms binding the protein” value came out at 0.68. In addition, the Kd in assay [1] (ITC, first line per metal: N 1, [PepA] 35.80 ± 1.5 (Mn) or 32.60 (Mg) µM, [Metal] 400.0 or 1000 µM) is 1.84 ± 0.182 µM; in assay [1] (ITC, one binding site per monomer), 2.1 ± 0.3 µM; in assay [1] (ITC, one binding site per monomer, 25 °C, pH 7.4), 2.14 ± 0.326 µM; in assay [1] (ITC, second line per metal: N 1, [PepA] 47.00 or 48.00 µM, [Metal] 526.5 ± 22.5 (Mn) or 1470 (Mg) µM), 2.72 ± 0.47 µM; in assay [1] (ITC, third line per metal: N fitted, [PepA] 47.00 or 48.00 µM, [Metal] 400.0 or 1000 µM), 1.84 ± 0.182 µM. For the same compound, the N in assay [1] (ITC, third line per metal: N fitted) was determined as 0.679 ± 0.001. The KACT in assay [2] (pH 8.0) was 3 mM and 3.0 ± 0.7 mM; in assay [2] (pH 8.0, listed as MgCl2) it was ~3 mM. The kcat in assay [2] (pH 8.0) is recorded as 0.051 ± 0.002 s^–1. For the same compound, in assay [2] (pH 8.0), the kcat/KACT came to 0.017 ± 0.004 s^–1mM^–1. In addition, the “^D2Okcat” value in assay [3] is on record as 3.1 ± 0.1. Further, in assay [3], the “^D2Okcat/KACT” value turned out to be 2.3 ± 0.1.

In the case of `[Zn+2]` [Zn^2+], in assay [4] (Zn^2+ and Mn^2+ both added without preincubation, noncompetitive mixed model), the Ki was 12200 nM. This compound returned a α in assay [4] (noncompetitive model of inhibition) of 5.6. Besides, in assay [2] (pH 8.0), the KACT was determined as 0.02 ± 0.01 mM; the kcat is 0.009 s^–1 and 0.009 ± 0.001 s^–1; the kcat/KACT was 0.5 ± 0.2 s^–1mM^–1. In assay [2] (pH 8.0, as given in text), this compound gave a KACT of 0.02 mM.

For `O=C([O-])O.[Na+]` [bicarbonate, sodium bicarbonate], the “activation by bicarbonate (in words)” value in assay [5] is “not observed activation or increase in activity”.

As to `CC(C)C[C@H](N)C(=O)O` [leucine], the Ki in assay [6] worked out at 601000 nM.

Turning to “YSGVC[+57.0]HTDLHAWHGDWPLPVK: tryptic peptide of yeast ADH, carbamidomethyl cysteine”, the “Cleaved?” value in assay [7] is “Digested (Peptides present in control samples but absent in reactions (integrated area <1000) were classified as “digested”)”.
